The values that follow come from PMC7559746 (Pharmaceutics, 2020).

Data set [1] in a line: Toxicity in patients (CTCAE version 4.0, patient diaries) per study phase. The class given is in vivo, human.
Text: Toxicity was described as the incidence of toxicity per phase. This was corrected for baseline toxicity and was only taken into account in case of an increase in CTCAE grade per PK sampling day.
For data set [2] the following is noted: at clinically relevant doses; cited from earlier work.
The nature of another data set: clinical. Conditions: human, plasma, oral.
Data set [3] is described as follows: Sorafenib concentration in 3-mm skin biopsies of patients (LC-MS/MS). The class given is in vivo, human. How it is done: A 3-mm skin biopsy was obtained at days 1 and 15 of the study during PK sampling days for pharmacokinetic analysis. Skin biopsies were taken from either the forearm or the shoulder region, but always from the same region at the same timepoint in an individual patient during the two consecutive PK sampling days. If patients had HFSR lesions at the hand at the first PK day, an additional skin biopsy was performed from the thenar eminence region of the hand for pathologic analysis on days 1 and 15. The biopsies were graded according to the scoring for interface dermatitis as used for graft-versus-host disease by an experienced pathologist (J.D.).

Details of data set [4]: method as in PMID 29065985. Conditions: cited from earlier work.
[5] abbreviates: plasma, relative difference of geometric means.
[6] abbreviates: plasma, sorafenib monotherapy (day 1).

Molecules are shown by their SMILES. Values joined by “and” are separate entries in the source; they are usually repeats but may differ in a detail not shown here. Equal entries are not always repeated. Where two headings read alike, the source gives them in different places.

Experimental for clinical: Patients were admitted to the hospital on days 1 and 15 of the study for pharmacokinetic blood sampling. […] Blood samples were processed into plasma within 30 min, by vortex mixing and centrifugation for 10 min at 2500× g at 4 °C. Plasma concentrations were determined using a validated liquid chromatography tandem mass spectrometry (LC-MS/MS) method [18], at both the laboratory of Translational Pharmacology in the Erasmus MC, Rotterdam, and the laboratory of Pharmaceutics and Pharmaceutical Chemistry, Ohio State University, OH.
The point estimates and CIs were transformed back to the original scale in order to give the point estimates for the ratio of the geometric means and the CIs. Tmax was analyzed by means of the Wilcoxon signed rank test and described with medians and interquartile ranges. Toxicity was described as the incidence of toxicity per phase. This was corrected for baseline toxicity and was only taken into account in case of an increase in CTCAE grade per PK sampling day.

For the molecule `CCCN(CCC)S(=O)(=O)c1ccc(C(=O)O)cc1` [Probenecid, probenecid], in data set [1] (during probenecid administration (concomitant with sorafenib)), the “occurrence of HFSR, rash, anorexia, and fatigue” value is given as 65%. Also, the plasma concentrations achieved result in data set [2] is “higher than 200 µM”.

Take `CNC(=O)c1cc(Oc2ccc(NC(=O)Nc3ccc(Cl)c(C(F)(F)F)c3)cc2)ccn1` [Sorafenib, sorafenib]: in “clinical”, the concentration peaked (Cmax) at 3340 ng/mL and the Tmax came to 2.2 h. The same molecule returned an AUC(0-t) in the data set “clinical” (500 mg) of 24500 ng·h/mL. For the same molecule, in data set [1] (N = 16 per phase), the “Anorexia, Grade 1–2, patients” value came to 4; the “Constipation, Grade 1–2, patients” value worked out at 2; the “Diarrhea, Grade 1–2, patients” value amounted to 1; the “Fatigue, Grade 1–2, patients” value worked out at 2. Besides, in data set [1] (N = 16 per phase), the “Fever, Grade 1–2, patients” value turned out to be 1; the “HFSR, Grade 1–2, patients” value is reported as 3; the “Nausea, Grade 1–2, patients” value turned out to be 1; the “Oral mucositis, Grade 1–2, patients” value was found to be 1. In data set [1] (N = 16 per phase), the “Pain, Grade 1–2, patients” value is reported as 1; the “Pain, Grade 3, patients” value was determined as 1; the “Rash, Grade 1–2, patients” value turned out to be 1; the “Vomiting, Grade 1–2, patients” value was found to be 0. Besides, the “Serious adverse events (SAE)” value in data set [1] (N = 16 per phase, assumed not related to study drugs) was found to be 1. Moreover, the “occurrence of HFSR, rash, anorexia, and fatigue” value in data set [1] (during sorafenib monotherapy) is recorded as 43%. In addition, in data set [1] (whole study), the “patients in whom HFSR occurred” value is on record as 10 of 16 patients. The “difference in sorafenib plasma AUC between patients with or without liver cirrhosis” value (90% CI: −32.9% to 30.7%, P = 0.73) is reported as −6.3%. The “difference in sorafenib plasma Ctrough between patients with or without liver cirrhosis” value (90% CI: −46.8% to 61.3%, P = 0.81) was −7.4%. The molecule further came in with an AUC(0-t) (human, plasma, oral) of 33500 ng·h/mL. Where the note is “human, plasma, oral, Cmax (CV%) geomean, plasma, sorafenib monotherapy (day 1)”, this molecule gave a maximum concentration (Cmax) of 4460 ng/mL. Also, where the note is “human, plasma, oral, Tmax (IQR) median, plasma, sorafenib monotherapy (day 1)”, the time to peak (Tmax) turned out to be 3.7 h. Moreover, under setting [5], the “RD sorafenib monotherapy vs. sorafenib + probenecid (90% CI), Cmax” value was −25.1% (−44.3% to −19.7%) and the “RD sorafenib monotherapy vs. sorafenib + probenecid (90% CI), Ctrough” value was −26.0% (−43.4% to −3.4%). Besides, under setting [6], the “Ctrough (CV%) geomean” value is recorded as 2125.5 (60) μg/mL. Besides, where the note is “vs sorafenib alone, decrease”, the “decrease of geometric mean plasma AUC0–12 h with concomitant probenecid” value is 27% and 26.8%; the “decrease of plasma Cmax with concomitant probenecid” value was 25.1%; the “decrease of plasma Ctrough with concomitant probenecid” value was 26.0%. The same molecule showed a Kp at 15 study day in data set [3] (human, skin and plasma, oral) of 0.00147. In data set [3] (skin biopsy), the “RD sorafenib monotherapy vs. sorafenib + probenecid (90% CI), sorafenib concentration in keratinocytes” value is listed as −28.1% (−46.3% to −3.7%). In data set [3] (vs sorafenib alone, decrease), the “decrease of sorafenib concentration in skin in the presence of probenecid” value is 28.1%. Also, the “clinical incidence of HFSR ≥ grade 3” value in data set [4] is given as 20%.

For the molecule `CNC(=O)c1cc(Oc2ccc(NC(=O)Nc3ccc(Cl)c(C(F)(F)F)c3)cc2)cc[n+]1[O-]` [Sorafenib-N-oxide, sorafenib-N-oxide], under setting [5], the “RD sorafenib monotherapy vs. sorafenib + probenecid (90% CI), AUC0–12 h” value is on record as −36.3% (−52.8% to −14.1%); the “RD sorafenib monotherapy vs. sorafenib + probenecid (90% CI), Cmax” value is recorded as −39.2% (−54.6% to −18.7%); the “RD sorafenib monotherapy vs. sorafenib + probenecid (90% CI), Ctrough” value is listed as −35.2% (−59.7% to 4.3%). Under setting [6], the “Cmax (CV%) geomean” value was 467.3 (77) μg/mL and the “Ctrough (CV%) geomean” value is reported as 271.1 (282) μg/mL. For the setting “vs sorafenib alone, decrease”, the “decrease of geometric mean plasma AUC0–12 h with concomitant probenecid” value worked out at 36.3% and the “decrease of plasma Cmax with concomitant probenecid” value was 39.2%.

The term Cmax denotes the peak of the concentration-time curve. As usually defined, the Tmax is the time from dosing to the highest level. As usually defined, the AUC(0-t) is exposure summed from dosing to a finite time, without extrapolation to infinity. As a reminder, the Kp is tissue or fluid exposure divided by exposure in the circulation.
